# System: Winterweizen
# Test: Field test of gametocidal activity (sterilisation of anthers), winter wheat
# Type: in vivo
# Settings: Sorte Mironowskaja 808; V. Periode der Organogenese; 2%ige wäßrige Emulsion; 20 kg/ha
# Source text: (§1) Die gametozide Aktivitat der erfindungsgemäßen Sterilisationsmittel war im Feldversuch in verschiedenen bodenklimatischen Zonen mit Teilstücken von 10 m^2 Größe in drei- bis viermaliger Wiederholung festgestellt. Jedes Sterilisationsmittel wurde mindenstens 5 Jahre lang geprüft.
# (§2) Die Entwicklung der Perioden der Organogenese wird zytologisch überwacht. Die Behandlung von Pflanzen mit dem Sterilisationsmittel erfolgt am Anfang der fünften Periode der Organogenese nach Kupermann.
# (§3) Mit dem Ährenschieben verwirklicht man die Isolierung von Hauptähren und anderen Stockwerken in Pergamentbeuteln. Bei Weizen und Tritikale werden Einzelisolatoren benutzt. Bei Roggen schließt man je Ähre 5 bis 7 verschiedene nebeneinander befindliche Pflanzen unter einen gemeinsamen Isolator ein. Bei Hierse wird jede Rispe getrennt isoliert. Der Sterilitätsprozentsatz (X) für Weizen, Roggen, Tritikale und Hirse wird nach der Formel [formula] ermittelt.
# (§4) Die Kornzahl in nicht isolierten Ähren von Kontrollpflanzen wird bedingt für 100 % Ansetzen bei freier Bestäubung angenommen.
# (§5) Um zuverlässige Angaben zu erhalten, verwendet man 20 bis 25 Isolatoren jeder Wiederholung für Weizen und Tritikale, 10 .bis 15 Isolatoren jeder Wiederholung für Roggen und Hirse.
# Pflanzen des Winterweizens Sorte Mironowskaja 808 werden in der V. Periode der Organogenese durch Zerstäubung der 2%igen wäßrigen Emulsion der δ, δ' -Thiodivaleriansäure mit Hilfe einer Rückenspritze behandelt. Als Emulgiermittel wird 0,1 Masse% Kalziumalkylbenzalsulfonat mit 12 bis 14 Kohlenstoffatomen hinzugefügt. Als Adjuvans führt man in die Emulsion 0,01 Masse% Dimethylsulfoxid ein. Der Verbrauch an Präparat beträgt 20 kg/ha. Als Kontrolle dienen Pflanzen, behandelt mit einem Verdünner ohne Sterilisationsmittel. Die Ergebnisse sind in der Tabelle 1 angegeben. […] Periode der Organogenese erhalten.
# Der Prozeß erfolgt analog zu dem im Beispiel 1 bescnriebenen. Als Sterilisationsmittel benutzt man 2%ige wäßrige Emulsion von Natriumsalz der δ, δ'-Thiodivaleriansäure, δ, δ' -Sulfonyldivaleriansäure, Natriumsalz der δ, δ' -Sulfonyldivaleriansäure, Kaliumsalz der δ, δ'--Sulfonyldivaleriansäure, Bis(di-n-butyläther) der δ, δ'--Thiodivaleriansäure, 4-Karboxybutyldezylsulfid bzw.
# Pflanzen des Winterweizens Sorte Korall werden in der V. Periode der Organogenese (nach Kupermann) mit 2%iger wäßriger Emulsion von Bis(2-äthylhexyläther) der δ, δ' --Thiodivaleriansäure, 4-Karboxybutyldezylsulfid bzw. Bis(di--n-butyläther) der δ, δ' -Thiodivalerianqäure behandelt. Die Emulsion enthält 0,1 Masse% Kalziumalkylbenzolsulfonat mit 12 bis 14 Kohlenstoffatomen und 0,01 Masse% Dodezylsulfat. Der Verbrauch an Präparat beträgt 12 kg/ha. Als Kontrolle dienen Pflanzen, behandelt mit einem Verdünner ohne Sterilisationsmittel. Die Prüfergebnisse sind in der Tabelle 2 angegeben.
# Pflanzen des Winterweizens Gordeiforme 12303 werden in der V. Periode der Organogenese (nach Kupermann) mit 2%iger wäßriger Emulsion von 4-Karboxybutyldezylsulfid, Bis(2-äthylhexyläther) der δ, δ' -Thiodivaleriansäure, δ, δ' -Sulfonyldivaleriansäure behandelt. Die Emulsion enthält als Emulgiermittel 0,1 Masse% Kalziumalkylbenzolsulfonat mit 12 bis 14 Kohlenstoffatomen und 0,01 Masse% Dimethylformamid. Der Verbrauch an Präparat beträgt 16 kg/ha. Als Kontrolle dienen Pflanzen, behandelt mit einem Verdünner ohne Sterilisationsmittel.
Compound,Anzahl von Körnern der Ähre bei freier Bestäubung,Anzahl von Körnern der Ähre im Isolator,Prozentsatz der Sterilität,Prozentsatz des Ansetzens von Körnern bei freier Bestäubung
"O=C([O-])CCCCSCCCCC(=O)[O-].[Na+].[Na+] [Beispiel 2, Natriumsalz der δ, δ'-Thiodivaleriansäure]","35,3","0,3","99,3%","85,7%"
"O=C(O)CCCCS(=O)(=O)CCCCC(=O)O [Beispiel 3, δ, δ' -Sulfonyldivaleriansäure]","37,2","0,0","100,0%","90,3%"

# System: Sommerweizen
# Test: Field test of gametocidal activity (sterilisation of anthers), spring wheat
# Type: in vivo
# Settings: Sorte Botanitscheskaja 4; V. Periode der Organogenese; 1%ige wäßrige Emulsion; 6 kg/ha
# Source text: as §1, §2, §3, §4, §5
# Pflanzen des Sommerweizens Sorte Moskowskaja 35 werden in der V. Periode der Organogenese (nach Kupermann) mit 1%iger wäßriger Emulsion von δ, δ' -Thiodivaleriansäure, Natriumsalz der δ, δ' -Thiodivaleriansäure, δ, δ'--Sulfonyldivaleriansäure, Natriumsalz der d, δ' -Sulfonyldivaleriansäure, Kaliumsalz der δ, δ' -Sulfornyldivaleriansäure, Bis (die-n-butyläther) der δ, δ' -Thiodivaleriansäure, 4-Karboxybutyldezylsulfid, Bis(2-äthylhexyläther) der δ, δ' -Thiodivaleriansäure behandelt. Die Emulsion enthält 0,1 Masse% Kalziumalkylbenzolsulfonat mit 12 bis 14 Kohlenstoffatomen und 0,01 Masse% Dimethylsulfoxid. Der Verbrauch an Präparat beträgt 6 kg/ha. Als Kontrolle dienen Pflanzen, behandelt mit einem Verdünner ohne Sterilisationsmittel. Die Prüfergebnisse sind in der Tabelle 4 angegeben. […] Periode der Organogenese erhalten.
# (§6) Pflanzen des Sommerweizens Sorte Rodina werden in der V. Periode der Organogenese (nach Kupermann) mit l%iger wäßriger Emulsion von δ, δ' -Sulfornyldivaleriansäure, 4-Karboxybutyldezylsulfid, Bis(2-äthylhexyläther) der δ, δ' -Thiodivaleriansäure behandelt. Die Emulsion enthält 0,1 Masse% Kalziumalkylbenzolsulfonat mit 12 bis 14 Kohlenstoffatomen und 0,01 Masse% Tetrahydrofuran. Der Verbrauch an Präparat beträgt 6 kg/ha. Als Kontrolle dienen Pflanzen, behandelt mit einem Verdünner ohne Sterilisationsmittel. Die Prüfergebnisse sind in der Tabelle 5 angegeben. […] Periode der Organogenese erhalten.
# Pflanzen des Sommerwizens Sorte Charkowskaja 9 werden in der V. Periode der Organogenese (nach Kupermann.) mit 1%iger waßriger Emulsion von Bis(di-n-butyläther) der δ, δ' -Thiodivaleriansäure, Bis(2-äthylhexyläther) der δ, δ' -Thiodivaleriansäure behandelt. Die Emulsion enthält 0,1 Masse% Kalziumalkylbenzolsulfonat mit 12 bis 14 Kohlenstoffatomen und 0,01 Masse% Äthylenglykol. Der Verbrauch an Präparat beträgt 8 kg/ha. Als Kontrolle dienen Pflanzen, behandelt mit einem Verdünner ohne Sterilisationsmittel. Die Prüfergebnisse sind in der Tabelle 6 angegeben. […] Periode der Organogenese erhalten.
# as §6, with “Botanitscheskaja 4” for “Rodina”, “1%iger” for “l%iger”, “von Natriumsatz der” for “von”, “--Thiodivaleriansäure, Bis(di-n-butyläther) der δ, δ' -Thiodiväleriansäure,” for “-Sulfornyldivaleriansäure,”, “Dodezylsulfat.” for “Tetrahydrofuran.”, “7” for “5”
Compound,Anzahl von Körnern der Ähre bei freier Bestäubung,Anzahl von Körnern der Ähre im Isolator,Prozentsatz der Sterilität,Prozentsatz des Ansetzens von Körnern bei freier Bestäubung
"O=C([O-])CCCCSCCCCC(=O)[O-].[Na+].[Na+] [Beispiel 28, Natriumsatz der δ, δ' --Thiodivaleriansäure]","36,2","0,3","99,2%","90,0%"
"CCCCCCCCCCSCCCCC(=O)O [Beispiel 30, 4-Karboxybutyldezylsulfid]","32,8","0,0","100,0%","81,6%"
"CCCCC(CC)COC(=O)CCCCSCCCCC(=O)OCC(CC)CCCC (stereo not shown) [Beispiel 31, Bis(2-äthylhexyläther) der δ, δ' -Thiodivaleriansäure]","33,4","0,0","100,0%","83,1%"
"Bis(di-n-butyläther) der δ, δ' -Thiodiväleriansäure [Beispiel 29]","30,6","0,0","100,0%","76,2%"

# Same assay, conditions: Sorte Charkowskaja 9; V. Periode der Organogenese; 1%ige Emulsion; 8 kg/ha
Compound,Anzahl von Körnern der Ähre bei freier Bestäubung,Anzahl von Körnern der Ähre im Isolator,Prozentsatz der Sterilität,Prozentsatz des Ansetzens von Körnern bei freier Bestäubung
"CCCCC(CC)COC(=O)CCCCSCCCCC(=O)OCC(CC)CCCC (stereo not shown) [Beispiel 27, Bis(2-äthylhexyläther) der δ, δ' -Thiodivaleriansäure]","28,6","0,0","100,0%","88,9%"
"Bis(di-n-butyläther) der δ, δ' -Thiodivaleriansäure [Beispiel 26]","28,7","0,0","100,0%","89,1%"

# Same assay, conditions: Sorte Moskowskaja 35; V. Periode der Organogenese; 1%ige wäßrige Emulsion; 6 kg/ha
Compound,Anzahl von Körnern der Ähre bei freier Bestäubung,Anzahl von Körnern der Ähre im Isolator,Prozentsatz der Sterilität,Prozentsatz des Ansetzens von Körnern bei freier Bestäubung
"O=C(O)CCCCSCCCCC(=O)O [Beispiel 15, δ, δ' -Thiodivaleriansäure]","31,7","0,9","97,0%","98,3%"
"O=C([O-])CCCCSCCCCC(=O)[O-].[Na+].[Na+] [Beispiel 16, Natriumsalz der δ, δ' -Thiodivaleriansäure]","30,8","0,9","97,0%","96,5%"
"O=C(O)CCCCS(=O)(=O)CCCCC(=O)O [Beispiel 17, δ, δ'--Sulfonyldivaleriansäure]","26,7","0,0","100,0%","83,6%"
"O=C([O-])CCCCS(=O)(=O)CCCCC(=O)[O-].[Na+].[Na+] [Beispiel 18, Natriumsalz der d, δ' -Sulfonyldivaleriansäure]","31,1","0,3","99,0%","97,4%"
"O=C([O-])CCCCS(=O)(=O)CCCCC(=O)[O-].[K+].[K+] [Beispiel 19, Kaliumsalz der δ, δ' -Sulfornyldivaleriansäure]","30,5","0,3","99,0%","95,6%"
"CCCCCCCCCCSCCCCC(=O)O [Beispiel 21, 4-Karboxybutyldezylsulfid]","26,9","0,0","100,0%","84,3%"
"CCCCC(CC)COC(=O)CCCCSCCCCC(=O)OCC(CC)CCCC (stereo not shown) [Beispiel 22, Bis(2-äthylhexyläther) der δ, δ' -Thiodivaleriansäure]","25,7","0,0","100,0%","80,6%"
"Bis (die-n-butyläther) der δ, δ' -Thiodivaleriansäure [Beispiel 20]","28,7","0,0","100,0%","89,9%"

# Same assay, conditions: Sorte Rodina; V. Periode der Organogenese; 1%ige wäßrige Emulsion; 6 kg/ha
Compound,Anzahl von Körnern der Ähre bei freier Bestäubung,Anzahl von Körnern der Ähre im Isolator,Prozentsatz der Sterilität,Prozentsatz des Ansetzens von Körnern bei freier Bestaubung
"O=C(O)CCCCS(=O)(=O)CCCCC(=O)O [Beispiel 23, δ, δ' -Sulfornyldivaleriansäure]","36,1","0,0","100,0%","96,3%"
"CCCCCCCCCCSCCCCC(=O)O [Beispiel 24, 4-Karboxybutyldezylsulfid]","29,8","0,0","100,0%","79,5%"
"CCCCC(CC)COC(=O)CCCCSCCCCC(=O)OCC(CC)CCCC (stereo not shown) [Beispiel 25, Bis(2-äthylhexyläther) der δ, δ' -Thiodivaleriansäure]","31,2","0,0","100,0%","83,2%"
